Source: ChEMBL document CHEMBL5500344, “Design, synthesis and biological evaluation of matrine contains benzimidazole derivatives as dual TOPOI and PARP inhibitors for cancer therapy” (Eur J Med Chem, 2024)

Assays:
HepG2 = test: Antiproliferative activity against human HepG2 cells assessed as inhibition of cell growth incubated for 48 hrs by MTT assay; type: functional, cell-based; conditions: HepG2, 48 h
HGC-27 = test: Antiproliferative activity against human HGC-27 cells assessed as inhibition of cell growth incubated for 48 hrs by MTT assay; type: functional, cell-based; conditions: HGC-27, 48 h, read-out: IC50
A549 = test: Antiproliferative activity against human A549 cells assessed as inhibition of cell growth incubated for 48 hrs by MTT assay; type: functional, cell-based; conditions: A549, 48 h
HeLa = test: Antiproliferative activity against human HeLa cells assessed as inhibition of cell growth incubated for 48 hrs by MTT assay; type: functional, cell-based
[1] = molecular target: Poly [ADP-ribose] polymerase 1 (Homo sapiens, UniProt P09874); test: Inhibition of PARP-1 (unknown origin) incubated for 70 mins by HT universal chemiluminescent assay
Sequence of Poly [ADP-ribose] polymerase 1 (P09874 whole entry): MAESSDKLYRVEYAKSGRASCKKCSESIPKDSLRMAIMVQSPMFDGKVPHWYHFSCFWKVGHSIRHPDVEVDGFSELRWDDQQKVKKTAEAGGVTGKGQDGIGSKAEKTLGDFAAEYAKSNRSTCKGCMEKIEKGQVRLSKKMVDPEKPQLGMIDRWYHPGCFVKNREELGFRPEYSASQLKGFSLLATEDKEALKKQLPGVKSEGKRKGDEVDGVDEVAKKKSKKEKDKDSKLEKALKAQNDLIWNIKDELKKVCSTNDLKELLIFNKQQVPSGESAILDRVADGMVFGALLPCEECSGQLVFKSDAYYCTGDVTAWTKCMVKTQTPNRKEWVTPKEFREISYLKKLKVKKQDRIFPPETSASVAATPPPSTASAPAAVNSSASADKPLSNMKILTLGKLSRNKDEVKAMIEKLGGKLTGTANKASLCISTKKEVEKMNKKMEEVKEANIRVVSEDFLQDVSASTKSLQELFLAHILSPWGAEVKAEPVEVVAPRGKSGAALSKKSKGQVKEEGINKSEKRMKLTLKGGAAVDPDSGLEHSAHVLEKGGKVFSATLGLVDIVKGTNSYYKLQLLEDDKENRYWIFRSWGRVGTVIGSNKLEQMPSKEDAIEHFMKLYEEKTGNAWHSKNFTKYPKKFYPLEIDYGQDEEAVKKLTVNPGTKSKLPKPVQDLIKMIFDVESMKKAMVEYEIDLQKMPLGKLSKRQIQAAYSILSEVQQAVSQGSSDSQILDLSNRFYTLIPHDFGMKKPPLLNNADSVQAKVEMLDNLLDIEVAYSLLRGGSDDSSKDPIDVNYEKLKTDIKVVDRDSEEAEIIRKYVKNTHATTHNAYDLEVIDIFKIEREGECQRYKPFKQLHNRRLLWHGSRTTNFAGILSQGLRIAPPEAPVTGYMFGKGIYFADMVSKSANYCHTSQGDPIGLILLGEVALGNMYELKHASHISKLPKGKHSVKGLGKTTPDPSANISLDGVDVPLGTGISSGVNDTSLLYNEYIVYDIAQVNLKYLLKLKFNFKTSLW

L02 = test: Antiproliferative activity against human L02 cells assessed as inhibition of cell growth incubated for 48 hrs by MTT assay; type: functional, cell-based; conditions: L02, 48 h

Compound	IC50 (HepG2) [µM]	IC50 (HGC-27) [µM]	IC50 (A549) [µM]	IC50 (HeLa) [µM]	IC50 [1] [µM]	IC50 (L02) [µM]
O=C(OCC1c2ccccc2-c2ccccc21)N1C[C@@H]2CCCN3CCC[C@@H]([C@H]23)[C@H]1CCCc1nc2ccc(Cl)cc2[nH]1	19.7	15.2	36.3	20.4	–	–
Cn1c(CCC[C@@H]2[C@H]3CCCN4CCC[C@@H](CN2C(=O)OCC2c5ccccc5-c5ccccc52)[C@@H]34)nc2ccc([N+](=O)[O-])cc21	13.8	11.1	31	23.8	–	–
CC(C)(C)c1ccc(S(=O)(=O)N2C[C@@H]3CCCN4CCC[C@@H]([C@H]34)[C@H]2CCCc2nc3cc([N+](=O)[O-])ccc3n2S(=O)(=O)c2ccc(C(C)(C)C)cc2)cc1	50.2	44.2	62.8	65.6	–	–
O=S(=O)(c1ccc(C(F)(F)F)cc1)N1C[C@@H]2CCCN3CCC[C@@H]([C@H]23)[C@H]1CCCc1nc2cc(Cl)ccc2n1S(=O)(=O)c1ccc(C(F)(F)F)cc1	9.17	8.65	57.3	62.4	14.4	> 64
Cc1ccc(S(=O)(=O)N2C[C@@H]3CCCN4CCC[C@@H]([C@H]34)[C@H]2CCCc2nc3ccc(Br)cc3n2S(=O)(=O)c2ccc(C)cc2)cc1	5.89	9.38	12.3	8.56	4.17	> 64
Cc1ccc(S(=O)(=O)N2C[C@@H]3CCCN4CCC[C@@H]([C@H]34)[C@H]2CCCc2nc3ccccc3n2S(=O)(=O)c2ccc(C)cc2)cc1	13.5	18.2	69.9	49.6	–	–
O=S(=O)(c1ccc(Cl)cc1)N1C[C@@H]2CCCN3CCC[C@@H]([C@H]23)[C@H]1CCCc1nc2cc(Cl)ccc2n1S(=O)(=O)c1ccc(Cl)cc1	21.6	18.4	68.3	> 80	–	–
Cn1c(CCCNC(=O)CCC[C@@H]2[C@H]3CCCN4CCC[C@@H](CN2C(=O)OCC2c5ccccc5-c5ccccc52)[C@@H]34)nc2ccc([N+](=O)[O-])cc21	23.8	16.8	20.6	15.5	–	–
O=C(CCC[C@@H]1[C@H]2CCCN3CCC[C@@H](CN1C(=O)OCC1c4ccccc4-c4ccccc41)[C@@H]23)NCCCc1nc2ccccc2[nH]1	37.4	24.4	30.7	21.7	–	–
O=C(OCC1c2ccccc2-c2ccccc21)N1C[C@@H]2CCCN3CCC[C@@H]([C@H]23)[C@H]1CCCc1nc2ccc(C(F)(F)F)cc2n1C(=O)OCC1c2ccccc2-c2ccccc21	28.6	27.8	19	21.2	–	–
O=C(CCC[C@@H]1[C@H]2CCCN3CCC[C@@H](CN1C(=O)OCC1c4ccccc4-c4ccccc41)[C@@H]23)NCCCc1nc2ccc(C(F)(F)F)cc2[nH]1	22.5	19.7	18.7	13.2	–	–
O=S(=O)(c1ccc(Br)cc1)N1C[C@@H]2CCCN3CCC[C@@H]([C@H]23)[C@H]1CCCc1nc2ccc(Cl)cc2n1S(=O)(=O)c1ccc(Br)cc1	32.2	29.3	68.2	71.2	–	–
O=C(OCC1c2ccccc2-c2ccccc21)N1C[C@@H]2CCCN3CCC[C@@H]([C@H]23)[C@H]1CCCc1nc2ccc(C(F)(F)F)cc2[nH]1	27.7	25.6	33.6	25.5	–	–
Cc1ccc(S(=O)(=O)N2C[C@@H]3CCCN4CCC[C@@H]([C@H]34)[C@H]2CCCc2nc3cc([N+](=O)[O-])ccc3n2S(=O)(=O)c2ccc(C)cc2)cc1	52.3	47.4	53.2	> 80	–	–
O=S(=O)(c1cccc2ccccc12)N1C[C@@H]2CCCN3CCC[C@@H]([C@H]23)[C@H]1CCCc1nc2ccc(F)cc2n1S(=O)(=O)c1cccc2ccccc12	19.8	12.4	62.4	40	–	–
CC(C)(C)c1ccc(S(=O)(=O)N2C[C@@H]3CCCN4CCC[C@@H]([C@H]34)[C@H]2CCCc2nc3ccccc3n2S(=O)(=O)c2ccc(C(C)(C)C)cc2)cc1	11.6	22.2	59.7	55.6	–	–
O=S(=O)(c1ccc(C(F)(F)F)cc1)N1C[C@@H]2CCCN3CCC[C@@H]([C@H]23)[C@H]1CCCc1nc2ccc(Cl)cc2n1S(=O)(=O)c1ccc(C(F)(F)F)cc1	> 80	70.3	> 80	> 80	–	–
Cc1ccc(S(=O)(=O)N2C[C@@H]3CCCN4CCC[C@@H]([C@H]34)[C@H]2CCCc2nc3ccc([N+](=O)[O-])cc3n2S(=O)(=O)c2ccc(C)cc2)cc1	40	40.2	74.2	71.8	–	–
CC(C)(C)c1ccc(S(=O)(=O)N2C[C@@H]3CCCN4CCC[C@@H]([C@H]34)[C@H]2CCCc2nc3ccc([N+](=O)[O-])cc3n2S(=O)(=O)c2ccc(C(C)(C)C)cc2)cc1	52.8	47.8	69.3	70.1	–	–
C[C@]1(c2nc3c(C(N)=O)cccc3[nH]2)CCCN1 [VELIPARIB]	13.7	16	15.2	18.1	–	–
O=S(=O)(c1ccc(Br)cc1)N1C[C@@H]2CCCN3CCC[C@@H]([C@H]23)[C@H]1CCCc1nc2cc(Cl)ccc2n1S(=O)(=O)c1ccc(Br)cc1	> 80	77.2	79.9	59.6	–	–
CC(C)(C)c1ccc(S(=O)(=O)N2C[C@@H]3CCCN4CCC[C@@H]([C@H]34)[C@H]2CCCc2nc3cc(Cl)ccc3n2S(=O)(=O)c2ccc(C(C)(C)C)cc2)cc1	> 80	58.9	77.5	66.3	–	–
O=C(OCC1c2ccccc2-c2ccccc21)N1C[C@@H]2CCCN3CCC[C@@H]([C@H]23)[C@H]1CCCc1nc2ccccc2n1C(=O)OCC1c2ccccc2-c2ccccc21	16.5	13.8	24.1	16.6	–	–
O=S(=O)(c1ccc(Cl)cc1)N1C[C@@H]2CCCN3CCC[C@@H]([C@H]23)[C@H]1CCCc1nc2ccc(Cl)cc2n1S(=O)(=O)c1ccc(Cl)cc1	11.2	12.1	46.1	53.2	–	–
CC(C)(C)c1ccc(S(=O)(=O)N2C[C@@H]3CCCN4CCC[C@@H]([C@H]34)[C@H]2CCCc2nc3ccc(Cl)cc3n2S(=O)(=O)c2ccc(C(C)(C)C)cc2)cc1	70.7	60.3	67.2	78.5	–	–
O=C(OCC1c2ccccc2-c2ccccc21)N1C[C@@H]2CCCN3CCC[C@@H]([C@H]23)[C@H]1CCCc1nc2ccc(Br)cc2[nH]1	11.6	10.4	20.8	15.1	–	–
